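Values below derive from 48-hour exposures of cells grown in 96-well plates, with endpoints linearly interpolated between the two concentrations bracketing the appropriate inhibition level. GI50 = concentration required for 50% inhibition of growth.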 Active and inactive are the calls of the source. Cut-off read from the data, not from the text of the source: active = GI50 up to about 1.1 µM and inactive = higher.
Assays:
Experiment in all cases: DTP human tumour cell line panel, 48 h
A498 = test system: A498
HOP-62 = test system: HOP-62
HT-29 = test system: HT-29
IGROV-1 = test system: IGROV-1
MDA-N = test system: MDA-N
Malme-3M = test system: Malme-3M
NCI-H226 = test system: NCI-H226
NCI-H522 = test system: NCI-H522
NCI/ADR-RES = test system: NCI/ADR-RES
OVCAR-8 = test system: OVCAR-8
RPMI-8226 = test system: RPMI-8226
SK-MEL-2 = test system: SK-MEL-2
SK-MEL-5 = test system: SK-MEL-5
SK-OV-3 = test system: SK-OV-3
SN12C = test system: SN12C
U-251 = test system: U-251
UACC-257 = test system: UACC-257
HL-60 = test system: HL-60
K562 = test system: K562
SF-539 = test system: SF-539

Measured: GI50

Cn1c(N)c(/C=N/NC(=O)CC#N)c(=O)n(C)c1=O
inactive: A498 > 100 µM | HOP-62 > 100 µM | HT-29 > 100 µM | IGROV-1 > 100 µM | MDA-N > 100 µM | Malme-3M 59.8 µM | NCI-H226 > 100 µM | NCI-H522 > 100 µM | NCI/ADR-RES > 100 µM | OVCAR-8 > 100 µM | RPMI-8226 > 100 µM | SK-MEL-2 > 100 µM | SK-MEL-5 > 100 µM | SK-OV-3 > 100 µM | SN12C > 100 µM | U-251 > 100 µM | UACC-257 > 100 µM

Cc1ccc(/N=N/C(=O)NNc2ccc(C)c([N+](=O)[O-])c2)cc1[N+](=O)[O-]
inactive: A498 14.7 µM | HL-60 17.9 µM | HOP-62 20.8 µM | HT-29 53.2 µM | IGROV-1 17.7 µM | K562 11.9 µM | MDA-N 32.7 µM | Malme-3M 30.8 µM | NCI-H226 51.9 µM | NCI-H522 20.6 µM | OVCAR-8 26.2 µM | RPMI-8226 19.9 µM | SK-MEL-2 14.2 µM | SK-MEL-5 22.9 µM | SN12C 31.4 µM | U-251 29.9 µM | UACC-257 25.8 µM

Cc1ccc(C)n1-n1c(-c2ccccc2)n[nH]c1=O
inactive: A498 > 100 µM | HOP-62 > 100 µM | HT-29 > 100 µM | IGROV-1 > 100 µM | K562 53.7 µM | MDA-N 24.8 µM | Malme-3M > 100 µM | NCI-H226 > 100 µM | NCI-H522 > 100 µM | NCI/ADR-RES > 100 µM | OVCAR-8 > 100 µM | RPMI-8226 > 100 µM | SK-MEL-2 > 100 µM | SK-MEL-5 > 100 µM | SK-OV-3 > 100 µM | SN12C > 100 µM | U-251 > 100 µM | UACC-257 > 100 µM

O=C(OCC1CCCN2CCCCC12)c1ccncc1 (centres undefined)
inactive: A498 > 100 µM | HOP-62 > 100 µM | HT-29 > 100 µM | IGROV-1 > 100 µM | K562 > 100 µM | MDA-N > 100 µM | Malme-3M > 100 µM | NCI-H226 > 100 µM | NCI/ADR-RES > 100 µM | OVCAR-8 > 100 µM | RPMI-8226 > 100 µM | SF-539 > 100 µM | SK-MEL-2 > 100 µM | SK-MEL-5 > 100 µM | SK-OV-3 > 100 µM | SN12C > 100 µM | U-251 > 100 µM | UACC-257 > 100 µM

Cc1cc(N(CCC#N)CCC#N)ccc1/C=C1N=C(/C=C\c2ccccc2)N(NC(=O)CC(=O)Nc2ccccc2Cl)C\1=O
inactive: A498 > 100 µM | HL-60 > 100 µM | HOP-62 > 100 µM | HT-29 > 100 µM | IGROV-1 > 100 µM | K562 > 100 µM | Malme-3M > 100 µM | NCI-H226 > 100 µM | NCI-H522 > 100 µM | OVCAR-8 > 100 µM | RPMI-8226 > 100 µM | SF-539 > 100 µM | SK-MEL-2 > 100 µM | SK-MEL-5 > 100 µM | SK-OV-3 > 100 µM | SN12C > 100 µM | U-251 > 100 µM | UACC-257 > 100 µM

COC(=O)CC1c2ccccc2N2C(=O)Cc3c([nH]c4ccccc34)C12 (centres undefined)
inactive: A498 > 100 µM | HOP-62 36.5 µM | HT-29 > 100 µM | IGROV-1 > 100 µM | K562 35.8 µM | MDA-N > 100 µM | Malme-3M 66.5 µM | NCI-H226 > 100 µM | NCI-H522 > 100 µM | NCI/ADR-RES > 100 µM | OVCAR-8 > 100 µM | RPMI-8226 > 100 µM | SK-MEL-2 > 100 µM | SK-MEL-5 > 100 µM | SK-OV-3 > 100 µM | SN12C > 100 µM | U-251 > 100 µM | UACC-257 > 100 µM

NN1C(=O)C(CCO)S/C1=N/N=C1/SC(CCO)C(=O)N1N (centres undefined)
inactive: A498 > 100 µM | HL-60 > 100 µM | HOP-62 > 100 µM | HT-29 > 100 µM | IGROV-1 > 100 µM | K562 > 100 µM | Malme-3M > 100 µM | NCI-H226 > 100 µM | NCI-H522 > 100 µM | OVCAR-8 > 100 µM | RPMI-8226 > 100 µM | SF-539 > 100 µM | SK-MEL-2 > 100 µM | SK-MEL-5 > 100 µM | SK-OV-3 > 100 µM | SN12C > 100 µM | U-251 > 100 µM | UACC-257 > 100 µM

CCOC(=O)c1c(SC(=O)/C=C/c2ccccc2)n(-c2ccccc2)c(=S)n(-c2ccccc2)c1=O
inactive: A498 > 100 µM | HOP-62 > 100 µM | HT-29 > 100 µM | IGROV-1 > 100 µM | K562 > 100 µM | Malme-3M > 100 µM | NCI-H226 > 100 µM | NCI-H522 > 100 µM | NCI/ADR-RES > 100 µM | OVCAR-8 > 100 µM | SF-539 > 100 µM | SK-OV-3 > 100 µM | SN12C > 100 µM | U-251 > 100 µM | UACC-257 > 100 µM
